Measurements published in the NIST ThermoML archive (doi:10.1016/j.jct.2012.02.017).

Key:
[1] = Ring tensiometer
[2] = xn = mol fraction of the nth substance listed; settings: Ring tensiometer

[2H]O[2H] [water-d2]
[1]
Settings	surface tension liquid-gas [mN/m]
288.15 K	73.59
298.15 K	71.87
308.15 K	70.21
318.15 K	68.84

CCO [ethanol]
[1]
Settings	surface tension liquid-gas [mN/m]
288.15 K	22.08
298.15 K	21.19
308.15 K	20.35
318.15 K	20.18

[2H]O[2H] [water-d2] + CCO
surface tension liquid-gas [mN/m], [2]
Settings	288.15 K	298.15 K	308.15 K	318.15 K
x2 = 0.0008	72.5	70.96	69.43	67.73
x2 = 0.0016	71.29	69.78	68.35	66.43
x2 = 0.0023	70.28	68.67	67.12	65.55
x2 = 0.0039	68.68	66.88	65.22	63.52
x2 = 0.007	65.31	63.61	61.92	60.23
x2 = 0.0116	62.13	59.42	58.1	56.98
x2 = 0.0191	57.62	53.65	52.63	51.86
x2 = 0.0295	52.54	50.9	48.05	47.3
x2 = 0.044	47.97	46.07	44.17	42.27
x2 = 0.0716	41.94	38.62	36.3	33.32
x2 = 0.1103	36.22	34.15	33.1	31.3
x2 = 0.157	32	30.33	29.1	27.58
x2 = 0.1991	30.52	29.16	28.14	27.03
x2 = 0.2462	29.15	28.17	27.39	26.56
x2 = 0.345	27.29	25.99	25.03	24.63
x2 = 0.4209	26.21	25.23	23.67	22.85
x2 = 0.4811	25.3	24.59	23.56	22.7
x2 = 0.5703	24.34	23.44	23.02	22.3
x2 = 0.6752	23.36	22.45	21.97	21.57
x2 = 0.7572	22.98	21.59	20.92	20.9
x2 = 0.8618	22.37	21.48	20.41	20.11

CCCO [propan-1-ol]
[1]
Settings	surface tension liquid-gas [mN/m]
288.15 K	23.34
298.15 K	22.54
308.15 K	21.62
318.15 K	20.99

[2H]O[2H] [water-d2] + CO
surface tension liquid-gas [mN/m], [2]
Settings	288.15 K	298.15 K	308.15 K	318.15 K
x2 = 0.0045	71.03	69.55	68.1	66.54
x2 = 0.0154	66.2	65.13	64.17	62.8
x2 = 0.0304	61.24	60.45	59.67	58.88
x2 = 0.0509	56.43	55.33	54.09	52.97
x2 = 0.0707	52.83	52.04	51.25	50.48
x2 = 0.0896	50.23	49.45	48.65	47.92
x2 = 0.1252	45.79	45.01	44.56	42.8
x2 = 0.1737	42.45	41.8	40.26	39.66
x2 = 0.2171	38.51	38.07	37.7	36.61
x2 = 0.2684	36.01	35.49	35.1	34.16
x2 = 0.3133	34.68	34.05	33.49	32.65
x2 = 0.353	33.4	32.79	32.05	31.79
x2 = 0.4271	31.83	30.79	30.29	29.42
x2 = 0.5279	29.14	29.01	28.68	27.75
x2 = 0.691	26.15	25.65	25.06	24.38
x2 = 0.8173	23.49	22.96	22.48	21.75

[2H]O[2H] [water-d2] + CCCO
surface tension liquid-gas [mN/m], [2]
Settings	288.15 K	298.15 K	308.15 K	318.15 K
x2 = 0.0007	70.61	68.81	67.5	66.16
x2 = 0.002	66.37	63.94	62.32	61.9
x2 = 0.0033	62.9	58.5	56.44	54.18
x2 = 0.0047	60.07	55.76	53.57	50.4
x2 = 0.006	57.59	54.16	52.75	48.26
x2 = 0.0099	52.32	48.49	46.75	45.22
x2 = 0.0165	45.84	43.67	40.52	39.54
x2 = 0.0255	41.34	39.38	38.39	37.11
x2 = 0.038	36.34	34.78	33.31	32.45
x2 = 0.0622	29	28.09	27.45	27.03
x2 = 0.138	25.81	24.9	24.75	23.58
x2 = 0.1851	25.78	25.09	24.19	23.62
x2 = 0.2272	25.17	24.99	24.38	23.37
x2 = 0.351	24.57	23.79	23.5	22.88
x2 = 0.4933	24.2	23.58	22.8	22.12
x2 = 0.6187	23.84	22.94	22.54	21.8
x2 = 0.8296	23.48	22.64	22.46	21.64

CO [methanol]
[1]
Settings	surface tension liquid-gas [mN/m]
288.15 K	22.37
298.15 K	21.64
308.15 K	20.94
318.15 K	19.93
